According to patent US9493466B2, “Treatment of cancer with TOR kinase inhibitors” (Signal Pharmaceuticals, LLC, priority 2011, dated 2016):

Assays:
Test in all cases: Growth inhibition assay for NHL lines
Format in all cases: cell-based
DB = settings: NHL DLBCL, 96 hours, n ≧ 3
Method: (§1) Growth Inhibition Assay for HCC and NHL Lines. The seeding density for each cell line was optimized to ensure assay linearity in 384-well plates.
(§2) Compound 1 was dissolved in dimethyl sulfoxide (DMSO) to prepare a 10 mM stock solution. A serial titration was performed to produce a working concentration range of […] to 10 mM. Aliquots to produce final concentrations of 1.5 nM to 10 μM were spotted via an acoustic dispenser (EDC ATS-100) into an empty 384-well plate. Compound 1 was spotted in a 10-point serial dilution fashion (3-fold dilution) in duplicate within the plate. The DMSO concentration was kept constant for a final assay concentration of 0.1% DMSO. Plates were replicated for use with different cell lines and testing periods. After compound plate replication, all plates were sealed (Agilent ThermoLoc) and stored at −20° C. for up to 1 month. […] When ready for testing, plates were removed from the freezer, thawed, and unsealed just prior to the addition of the test cells. Prior to testing, cells were grown and expanded in culture flasks to provide sufficient amounts of starting material. Cells were then diluted to the appropriate densities and added directly to the compound-spotted 384-well plates. Cells were allowed to grow for 96 hours at 37° C./5% CO2. At the time when compound was added (t0), initial cell number was assessed via a viability assay (Cell Titer-Glo) by quantifying the level of luminescence generated by ATP present in viable cells. After 96 hours, cell viability of compound-treated cells was assessed via Cell Titer-Glo and luminescence measurement. Cell lines were assayed for growth inhibition by Compound 1 in at least 3 independent tests. A control cell line (the lung tumor cell line, A549) was included in each of the assays. The compound response against this control cell line was monitored closely to enable comparison of the data generated through the assay period. All data were normalized and presented as a percentage of the DMSO-treated cells. Results were then expressed as a GI50 value. The GI50 value corrects for the cell count at time zero. In addition, the IC50 value of Compound 1 for each cell line was calculated.

HT = settings: NHL DLBCL, 96 hours, n ≧ 3
Method: as §1, §2

JEKO-1 = settings: JEKO-1, NHL MCL, 96 hours, n ≧ 3
Method: as §1, §2

JVM-13 = settings: JVM-13, NHL MCL, 96 hours, n ≧ 3
Method: as §1, §2

KARPAS-1106P = settings: NHL DLBCL, 96 hours, n ≧ 3
Method: as §1, §2

KARPAS-299 = settings: KARPAS-299, ALCL T-cell, 96 hours, n ≧ 3
Method: as §1, §2

KARPAS-422 = settings: KARPAS-422, NHL DLBCL, 96 hours, n ≧ 3
Method: as §1, §2

KASUMI-1 = settings: KASUMI-1, Leukemia M-AML, 96 hours, n ≧ 3
Method: as §1, §2

Mino = settings: NHL MCL, 96 hours, n ≧ 3
Method: as §1, §2

Pfeiffer = settings: NHL DLBCL, 96 hours, n ≧ 3
Method: as §1, §2

SC-1 = settings: SC-1, NHL FL, 96 hours, n ≧ 3
Method: as §1, §2

SU-DHL-1 = settings: SU-DHL-1, ALCL T-cell, 96 hours, n ≧ 3
Method: as §1, §2

SU-DHL-6 = settings: SU-DHL-6, NHL DLBCL, 96 hours, n ≧ 3
Method: as §1, §2

SU-DHL-8 = settings: SU-DHL-8, NHL DLBCL, 96 hours, n ≧ 3
Method: as §1, §2

U-2940 = settings: U-2940, NHL DLBCL, 96 hours, n ≧ 3
Method: as §1, §2

WSU-NHL = settings: NHL FL, 96 hours, n ≧ 3
Method: as §1, §2

CO[C@H]1CC[C@H](N2C(=O)CNc3ncc(-c4ccc(C(C)(C)O)nc4)nc32)CC1 [Compound 1, 7-(6-(2-hydroxypropan-2-yl)pyridin-3-yl)-1-((1r,4r)-4-methoxycyclohexyl)-3,4-dihydropyrazino-[2,3-b]pyrazin-2(1H)-one]
GI50 (DB): 150 ± 100 nM
IC50 (DB): 170 ± 90 nM
GI50 (HT): 110 ± 40 nM
IC50 (HT): 170 ± 50 nM
GI50 (JEKO-1): 70 ± 40 nM
IC50 (JEKO-1): 100 ± 50 nM
GI50 (JVM-13): 1770 ± 1610 nM
IC50 (JVM-13): 3490 ± 2480 nM
GI50 (KARPAS-1106P): 70 ± 30 nM
IC50 (KARPAS-1106P): 70 ± 30 nM
GI50 (KARPAS-299): 330 ± 120 nM
IC50 (KARPAS-299): 470 ± 220 nM
GI50 (KARPAS-422): 20 ± 10 nM
IC50 (KARPAS-422): 20 ± 10 nM
GI50 (KASUMI-1): 40 ± 20 nM
IC50 (KASUMI-1): 120 ± 30 nM
GI50 (Mino): 370 ± 130 nM
IC50 (Mino): 480 ± 100 nM
GI50 (Pfeiffer): 90 ± 40 nM
IC50 (Pfeiffer): 190 ± 70 nM
GI50 (SC-1): 180 ± 10 nM
IC50 (SC-1): 200 ± 10 nM
GI50 (SU-DHL-1): 320 ± 20 nM
IC50 (SU-DHL-1): 390 ± 30 nM
GI50 (SU-DHL-6): 160 ± 40 nM
IC50 (SU-DHL-6): 200 ± 60 nM
GI50 (SU-DHL-8): 80 ± 40 nM
IC50 (SU-DHL-8): 100 ± 40 nM
GI50 (U-2940): 110 ± 70 nM
IC50 (U-2940): 180 ± 100 nM
GI50 (WSU-NHL): 50 nM
IC50 (WSU-NHL): 70 nM
